Legend:
Type in all cases: cell-based
[1] = molecular target: T1, NaV1.3 (Homo sapiens, UniProt Q9NY46); test: VIPR optical membrane potential assay with electrical stimulation, NaV1.3; settings: Table 9, NaV 1.3 receptors
T1 construct: expressed in transfected cells; host or cells: HEK293
In short: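 HEK293 cells stably expressing NaV1.3, stained with CC2-DMPE (10 μM final) then DiSBAC2(3) with ABSC1, 30 min each at RT; compounds added with oxonol. Electrical stimulation for 3 s; 460/580 nm background-subtracted emission ratio Rf/Ri, normalised to tetracaine (positive) and untreated (negative) controls.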

[2] = molecular target: T2, CaV2.2 (Homo sapiens, UniProt Q00975); test: VIPR optical membrane potential assay with electrical stimulation, CaV2.2; settings: Table 9, CaV 2.2 receptors
T2 construct: expressed in transfected cells; host or cells: HEK293
In short: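 HEK293 cells stably expressing CaV2.2 stained with CC2-DMPE/DiSBAC2(3) voltage-sensitive dyes (10 μM final CC2-DMPE, 30 min, RT), then compound added and cells electrically stimulated for 3-5 s. Read-out: background-subtracted 460/580 nm emission ratio; response R=Rf/Ri (post- vs pre-stimulus ratio); antagonism seen as reduced response.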

[3] = molecular target: NaV1.8 (Homo sapiens, UniProt Q9Y5Y9); test: VIPR optical membrane potential assay, NaV1.8 (other subtypes in an analogous mode); settings: Table 9, NaV 1.8 receptors
Procedure: Antagonist properties of test compounds were assessed as follows. Cells expressing the NaV of interest were placed into microtiter plates. After an incubation period, the cells were stained with fluorescent dyes sensitive to the transmembrane potential. The test compounds were added to the microtiter plate. The cells were stimulated with either chemical or electrical means to evoke a NaV dependent membrane potential change from unblocked channels, which was detected and measured with trans-membrane potential-sensitive dyes. Antagonists were detected as a decreased membrane potential response to the stimulus.
24 hours before the assay on VIPR, CHO cells endogenously expressing a NaV 1.2 type voltage-gated NaV are seeded in 96-well poly-lysine coated plates at 60,000 cells per well. […] Plates are incubated in the dark for 30 minutes at room temperature. • 4) While the cells are being stained with coumarin, a […] oxonol solution in BS#2 is prepared. […] As before, the residual volume should be 40 μL. • 6) Upon removing the bath, the cells are loaded with 80 μL of the DiSBAC2(3) solution, after which test compound, dissolved in DMSO, is added to achieve the desired test concentration to each well from the drug addition plate and mixed thoroughly. The volume in the well should be roughly 121 μL. The cells are then incubated for 20-30 minutes. • 7) Once the incubation is complete, the cells are ready to be assayed on VIPR® with a sodium addback protocol. 120 μL of Bath solution #1 is added to stimulate the NaV dependent depolarization. […] tetracaine was used as an antagonist positive control for block of the NaV channel. Analysis of VIPR® Data:
The following is an example of how NaV1.3 inhibition activity is measured using the optical membrane potential method#2. Other subtypes are performed in an analogous mode in a cell line expressing the NaV of interest.

Sequence of NaV1.8 (Q9Y5Y9 whole entry): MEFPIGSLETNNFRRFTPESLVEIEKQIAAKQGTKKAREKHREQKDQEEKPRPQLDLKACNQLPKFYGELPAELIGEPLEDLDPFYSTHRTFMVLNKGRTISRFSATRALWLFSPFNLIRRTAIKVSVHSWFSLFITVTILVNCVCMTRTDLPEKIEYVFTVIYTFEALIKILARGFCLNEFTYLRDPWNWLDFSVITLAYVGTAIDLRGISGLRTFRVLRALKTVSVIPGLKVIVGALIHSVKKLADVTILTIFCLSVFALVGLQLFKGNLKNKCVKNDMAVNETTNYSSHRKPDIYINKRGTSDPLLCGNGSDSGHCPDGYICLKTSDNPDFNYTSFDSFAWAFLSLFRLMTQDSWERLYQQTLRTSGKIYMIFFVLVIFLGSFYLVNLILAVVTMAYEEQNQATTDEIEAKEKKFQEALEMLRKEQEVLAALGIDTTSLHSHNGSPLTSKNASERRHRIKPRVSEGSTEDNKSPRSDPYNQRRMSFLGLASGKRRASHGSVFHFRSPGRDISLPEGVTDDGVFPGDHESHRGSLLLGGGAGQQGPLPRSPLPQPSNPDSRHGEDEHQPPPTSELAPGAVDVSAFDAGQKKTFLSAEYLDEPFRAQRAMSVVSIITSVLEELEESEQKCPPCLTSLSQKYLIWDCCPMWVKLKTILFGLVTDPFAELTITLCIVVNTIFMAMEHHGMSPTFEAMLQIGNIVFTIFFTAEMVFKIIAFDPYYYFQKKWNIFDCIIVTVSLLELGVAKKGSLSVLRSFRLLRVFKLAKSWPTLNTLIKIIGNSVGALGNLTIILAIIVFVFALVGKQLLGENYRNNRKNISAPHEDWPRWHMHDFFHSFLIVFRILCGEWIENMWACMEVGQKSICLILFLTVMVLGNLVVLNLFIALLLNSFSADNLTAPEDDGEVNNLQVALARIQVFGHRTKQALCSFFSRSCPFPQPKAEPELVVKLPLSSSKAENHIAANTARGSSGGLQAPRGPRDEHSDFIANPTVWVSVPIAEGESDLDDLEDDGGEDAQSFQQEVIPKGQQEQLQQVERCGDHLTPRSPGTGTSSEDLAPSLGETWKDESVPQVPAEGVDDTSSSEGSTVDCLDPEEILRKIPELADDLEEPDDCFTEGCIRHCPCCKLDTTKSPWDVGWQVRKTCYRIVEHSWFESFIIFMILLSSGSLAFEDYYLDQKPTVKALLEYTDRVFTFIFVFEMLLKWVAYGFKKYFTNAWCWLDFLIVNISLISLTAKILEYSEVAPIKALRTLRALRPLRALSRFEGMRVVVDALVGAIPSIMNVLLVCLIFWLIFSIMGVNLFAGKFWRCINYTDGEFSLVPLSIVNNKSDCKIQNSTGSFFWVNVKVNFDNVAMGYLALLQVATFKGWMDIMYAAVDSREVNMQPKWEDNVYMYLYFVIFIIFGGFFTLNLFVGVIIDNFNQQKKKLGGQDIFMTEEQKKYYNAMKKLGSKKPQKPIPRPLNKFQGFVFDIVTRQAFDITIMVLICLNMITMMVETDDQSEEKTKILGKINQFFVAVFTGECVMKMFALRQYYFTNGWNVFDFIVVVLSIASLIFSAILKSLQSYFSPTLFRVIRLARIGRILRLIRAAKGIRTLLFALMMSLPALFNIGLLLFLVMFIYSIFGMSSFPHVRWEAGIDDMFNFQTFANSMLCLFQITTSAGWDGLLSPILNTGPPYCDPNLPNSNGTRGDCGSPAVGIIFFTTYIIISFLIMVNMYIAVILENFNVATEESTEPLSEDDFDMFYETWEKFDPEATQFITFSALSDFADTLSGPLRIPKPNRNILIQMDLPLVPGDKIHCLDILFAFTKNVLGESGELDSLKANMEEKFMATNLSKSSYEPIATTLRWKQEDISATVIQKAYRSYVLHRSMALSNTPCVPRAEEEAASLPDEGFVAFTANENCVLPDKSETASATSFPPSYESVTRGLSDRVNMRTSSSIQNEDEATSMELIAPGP
T1 sequence (Q9NY46 whole entry): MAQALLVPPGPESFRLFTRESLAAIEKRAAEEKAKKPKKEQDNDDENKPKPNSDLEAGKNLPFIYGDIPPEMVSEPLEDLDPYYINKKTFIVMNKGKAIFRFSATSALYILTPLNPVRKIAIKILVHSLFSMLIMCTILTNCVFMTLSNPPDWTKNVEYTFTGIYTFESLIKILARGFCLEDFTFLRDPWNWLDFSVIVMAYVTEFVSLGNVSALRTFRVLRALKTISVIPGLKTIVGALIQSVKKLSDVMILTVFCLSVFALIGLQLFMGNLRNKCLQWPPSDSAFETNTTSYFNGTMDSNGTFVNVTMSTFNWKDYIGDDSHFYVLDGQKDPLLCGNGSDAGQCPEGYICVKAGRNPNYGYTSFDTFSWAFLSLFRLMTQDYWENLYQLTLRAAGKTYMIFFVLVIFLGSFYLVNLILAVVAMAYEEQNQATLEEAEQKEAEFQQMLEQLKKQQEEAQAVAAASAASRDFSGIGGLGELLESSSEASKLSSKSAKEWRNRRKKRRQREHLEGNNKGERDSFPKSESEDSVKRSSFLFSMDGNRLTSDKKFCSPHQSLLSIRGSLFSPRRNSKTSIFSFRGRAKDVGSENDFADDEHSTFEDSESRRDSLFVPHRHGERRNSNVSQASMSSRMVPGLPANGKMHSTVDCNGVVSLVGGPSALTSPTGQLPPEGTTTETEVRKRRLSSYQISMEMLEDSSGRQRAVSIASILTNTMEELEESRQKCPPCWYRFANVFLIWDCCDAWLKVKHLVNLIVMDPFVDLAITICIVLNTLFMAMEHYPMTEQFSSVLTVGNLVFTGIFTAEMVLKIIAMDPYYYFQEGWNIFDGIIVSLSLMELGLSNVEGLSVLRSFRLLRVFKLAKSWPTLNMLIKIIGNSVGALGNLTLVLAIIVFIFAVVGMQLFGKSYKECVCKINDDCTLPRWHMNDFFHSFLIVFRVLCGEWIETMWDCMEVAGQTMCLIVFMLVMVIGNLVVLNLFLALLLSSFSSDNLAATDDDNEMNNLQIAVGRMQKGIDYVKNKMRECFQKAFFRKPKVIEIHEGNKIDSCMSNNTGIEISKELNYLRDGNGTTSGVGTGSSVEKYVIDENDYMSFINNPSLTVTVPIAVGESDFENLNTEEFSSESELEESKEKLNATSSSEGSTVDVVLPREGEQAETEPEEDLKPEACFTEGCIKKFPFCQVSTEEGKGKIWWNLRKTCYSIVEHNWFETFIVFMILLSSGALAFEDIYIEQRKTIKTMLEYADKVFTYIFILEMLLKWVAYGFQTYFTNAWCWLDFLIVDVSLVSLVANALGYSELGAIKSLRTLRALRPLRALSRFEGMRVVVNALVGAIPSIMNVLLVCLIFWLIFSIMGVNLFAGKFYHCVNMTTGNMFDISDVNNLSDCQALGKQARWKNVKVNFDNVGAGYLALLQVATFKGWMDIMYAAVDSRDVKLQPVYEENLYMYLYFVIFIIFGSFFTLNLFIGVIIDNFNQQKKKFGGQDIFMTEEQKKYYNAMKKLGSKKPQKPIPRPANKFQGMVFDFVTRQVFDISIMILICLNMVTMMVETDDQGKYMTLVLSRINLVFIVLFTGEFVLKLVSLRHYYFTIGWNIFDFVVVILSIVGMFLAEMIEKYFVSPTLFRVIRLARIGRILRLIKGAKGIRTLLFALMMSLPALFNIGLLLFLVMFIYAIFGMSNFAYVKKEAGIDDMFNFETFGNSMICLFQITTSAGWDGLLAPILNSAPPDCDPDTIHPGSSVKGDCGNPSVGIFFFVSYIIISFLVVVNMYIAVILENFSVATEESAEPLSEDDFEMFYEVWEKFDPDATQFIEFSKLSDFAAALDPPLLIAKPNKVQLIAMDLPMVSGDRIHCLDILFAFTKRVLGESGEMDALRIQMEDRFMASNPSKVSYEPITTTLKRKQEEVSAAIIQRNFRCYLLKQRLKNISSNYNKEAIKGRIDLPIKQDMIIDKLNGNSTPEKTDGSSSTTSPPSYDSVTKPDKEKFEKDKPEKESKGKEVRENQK

Row | SMILES | IC50 [1] | IC50 [2] | IC50 [3]
1 | CC(C)N(Cc1ccccc1)C(=O)c1cnc(N2CCOCC2)nc1-c1ccc(F)c(F)c1 [compound 16] | > 10 µM | > 10 µM | > 10 µM
2 | CC(C)N(C(=O)c1cnc(N2CCOCC2)nc1-c1ccccc1F)c1ccc2c(c1)OCCO2 [compound 67] | > 10 µM | > 10 µM | > 10 µM
3 | O=C(c1cnc(N2CCSCC2)nc1-c1ccccc1F)N(Cc1ccccc1)C1CC1 [compound 109] | 2 to 10 µM | 2 to 10 µM | > 10 µM
4 | COc1cccc(N(C(=O)c2cnc(N3CCCCC3)nc2-c2ccccc2F)C2CCCC2)c1 [compound 42] | 2 to 10 µM | 2 to 10 µM | > 10 µM
5 | CC(C)N(Cc1ccccc1)C(=O)c1cnc(N2CCOCC2)nc1-c1cc(F)cc(F)c1 [compound 139] | 2 to 10 µM | 2 to 10 µM | 2 to 10 µM
6 | COc1cccc(N(C(=O)c2cnc(N3CCN(C)CC3)nc2-c2ccccc2F)C(C)C)c1 [compound 87] | > 10 µM | > 10 µM | > 10 µM
7 | CC(C)N(Cc1ccccc1)C(=O)c1cnc(N2CCCCC2)nc1-c1ccccc1F [compound 117] | 2 to 10 µM | < 2 µM | 2 to 10 µM
8 | COc1cccc(N(C(=O)c2cnc(N3CCCCC3)nc2-c2ccccc2Cl)C2CC2)c1 [compound 58] | > 10 µM | > 10 µM | > 10 µM
9 | CCN(CCOC)c1ncc(C(=O)N(Cc2cccc(OC)c2)C(C)C)c(-c2ccccc2F)n1 [compound 103] | < 2 µM | < 2 µM | > 10 µM
10 | CC(C)N(C(=O)c1cnc(N2CCCCC2)nc1-c1ccccc1Cl)c1cccc(C(C)(C)C)c1 [compound 3] | 2 to 10 µM | > 10 µM | > 10 µM
11 | O=C(NCCCc1ccccc1)c1cnc(N2CCOCC2)nc1-c1ccc(Oc2ccccc2)cc1 [compound 46] | > 10 µM | > 10 µM | > 10 µM
12 | O=C(c1cnc(N2CCOCC2)nc1-c1ccccc1F)N(Cc1cnc2ccccc2c1)C1CC1 [compound 99] | > 10 µM | > 10 µM | > 10 µM
13 | CC(C)N(C(=O)c1cnc(N2CCOCC2)nc1-c1ccccc1F)c1ccccc1 [compound 88] | > 10 µM | 2 to 10 µM | > 10 µM
14 | O=C(c1cnc(N2CCCCC2)nc1-c1ccccc1F)N(Cc1cccc(-c2ccncc2)c1)C1CC1 [compound 14] | > 10 µM | 2 to 10 µM | > 10 µM
15 | CC(C)N(C(=O)c1cnc(N2CCC3CCCCC3C2)nc1-c1ccccc1F)C1CCSC1 (stereo not drawn) [compound 141] | > 10 µM | 2 to 10 µM | > 10 µM
16 | COc1cccc(N(C(=O)c2cnc(N3CCCCC3)nc2-c2ccccc2F)C2CCOCC2)c1 [compound 35] | > 10 µM | > 10 µM | > 10 µM

Row | SMILES | IC50 [1] | IC50 [2] | IC50 [3]
17 | CC(C)N(C(=O)c1cnc(N2CCC3CCCCC3C2)nc1-c1ccccc1F)c1cccc(C#N)c1 (stereo not drawn) [compound 54] | 2 to 10 µM | 2 to 10 µM | > 10 µM
18 | CC(C)N(C(=O)c1cnc(N2CCN(C)CC2)nc1-c1ccccc1F)c1ccccc1 [compound 23] | > 10 µM | > 10 µM | > 10 µM
19 | CC(C)N(C(=O)c1cnc(N2CCCCC2)nc1-c1ccccc1F)c1cccc(O)c1 [compound 66] | > 10 µM | 2 to 10 µM | > 10 µM
20 | O=C(c1cnc(N2CCC3CCCCC3C2)nc1-c1ccccc1F)N(Cc1cccc(-c2ccncc2)c1)C1CC1 (stereo not drawn) [compound 114] | > 10 µM | < 2 µM | > 10 µM
21 | CC(C)N(Cc1ccc2c(c1)OCO2)C(=O)c1cnc(N2CCC3CCCCC3C2)nc1-c1ccccc1F (stereo not drawn) [compound 120] | 2 to 10 µM | < 2 µM | > 10 µM
22 | O=C(c1cnc(N2CCOCC2)nc1-c1ccccc1F)N(Cc1cccc2ccccc12)C1CC1 [compound 40] | 2 to 10 µM | > 10 µM | > 10 µM
23 | CC(C)N(C(=O)c1cnc(N2CCOCC2)nc1-c1ccccc1F)c1ccc2c(c1)OCO2 [compound 182] | > 10 µM | 2 to 10 µM | > 10 µM
24 | O=C(c1cnc(N2CCCCC2)nc1-c1ccccc1F)N(Cc1ccc2c(c1)CCO2)C1CC1 [compound 77] | 2 to 10 µM | 2 to 10 µM | > 10 µM
25 | O=C(c1cnc(N2CCOCC2)nc1-c1ccccc1F)N(Cc1cccnc1)C1CC1 [compound 138] | > 10 µM | > 10 µM | > 10 µM
26 | CC(C)N(Cc1ccccc1)C(=O)c1cnc(Nc2cccc(O)c2)nc1-c1ccccc1F [compound 132] | > 10 µM | > 10 µM | > 10 µM
27 | CC(C)N(Cc1ccccc1)C(=O)c1cnc(Nc2ccc3c(c2)OCO3)nc1-c1ccccc1F [compound 51] | 2 to 10 µM | 2 to 10 µM | > 10 µM
28 | Cc1nc(N2CCOCC2)nc(-c2ccccc2F)c1C(=O)N(Cc1ccc(F)cc1)C1CC1 [compound 9] | 2 to 10 µM | 2 to 10 µM | > 10 µM
29 | Cc1nc(N2CCOCC2)nc(-c2ccccc2F)c1C(=O)N(Cc1ccccc1)C(C)C [compound 13] | > 10 µM | 2 to 10 µM | > 10 µM
30 | Cc1ccc(Nc2ncc(C(=O)N(Cc3ccccc3)C(C)C)c(-c3ccccc3F)n2)cc1 [compound 63] | > 10 µM | > 10 µM | > 10 µM
31 | COc1cccc(CN(C(=O)c2cnc(N3CCCCC3)nc2-c2ccccc2Cl)C(C)C)c1 [compound 55] | 2 to 10 µM | 2 to 10 µM | 2 to 10 µM
32 | CC(C)N(C(=O)c1cnc(N2CCCCC2)nc1-c1ccccc1Cl)c1cccc(C#N)c1 [compound 101] | 2 to 10 µM | 2 to 10 µM | > 10 µM

Other lines, results leading:

Row | IC50 [1] | IC50 [2] | IC50 [3] | SMILES
33 | 2 to 10 µM | > 10 µM | > 10 µM | COc1cccc(N(C(=O)c2cnc(N3CCOCC3)nc2-c2ccccc2F)C2CCCC2)c1 [compound 169]
34 | > 10 µM | > 10 µM | > 10 µM | CC1Cc2ccccc2N1C(=O)c1cnc(N2CCOCC2)nc1-c1ccccc1F (stereo not drawn) [compound 150]
35 | > 10 µM | > 10 µM | > 10 µM | CC(C)N(C(=O)c1cnc(N2CCOCC2)nc1-c1ccccc1F)c1cccc([N+](=O)[O-])c1 [compound 178]
36 | > 10 µM | > 10 µM | > 10 µM | CC(=O)Nc1ccc(-c2nc(N3CCOCC3)ncc2C(=O)N(Cc2ccccc2)C(C)C)cc1 [compound 168]
37 | 2 to 10 µM | 2 to 10 µM | > 10 µM | COc1cccc(N(C(=O)c2cnc(N3CCCCC3)nc2-c2ccccc2Cl)C(C)C)c1 [compound 175]
38 | > 10 µM | > 10 µM | > 10 µM | CC(C)N(Cc1ccccc1)C(=O)c1cnc(N2CCN(C)CC2)nc1-c1ccccc1F [compound 167]
39 | > 10 µM | 2 to 10 µM | > 10 µM | O=C(c1cnc(N2CCOCC2)nc1-c1ccccc1F)N(Cc1cccc(C(F)(F)F)c1)C1CC1 [compound 195]
40 | > 10 µM | > 10 µM | > 10 µM | COc1cccc(N(C(=O)c2cnc(N3CCOCC3)nc2-c2ccccc2F)C2CC2)c1 [compound 183]
41 | 2 to 10 µM | < 2 µM | 2 to 10 µM | CC(C)N(Cc1ccccc1)C(=O)c1cnc(N2CCOCC2)nc1-c1ccccc1Cl [compound 194, N-benzyl-4-(2-chlorophenyl)-N-isopropyl-2-morpholinopyrimidine-5-carboxamide]
42 | 2 to 10 µM | 2 to 10 µM | > 10 µM | CC(C)N(C(=O)c1cnc(N2CCC3CCCCC3C2)nc1-c1ccccc1F)c1ccc2c(c1)OCCO2 (stereo not drawn) [compound 151]
43 | > 10 µM | > 10 µM | > 10 µM | COc1cccc(N(C(=O)c2cnc(N3CCOCC3)nc2-c2ccccc2F)C(C)C)c1 [compound 160]
44 | > 10 µM | > 10 µM | > 10 µM | Cc1nc(N2CCCCC2)nc(-c2ccccc2F)c1C(=O)N(Cc1ccc2c(c1)CCO2)C1CC1 [compound 192]
45 | 2 to 10 µM | 2 to 10 µM | 2 to 10 µM | CC(C)N(Cc1ccc2c(c1)OCO2)C(=O)c1cnc(N2CCCCC2)nc1-c1ccccc1Cl [compound 146]
46 | 2 to 10 µM | 2 to 10 µM | > 10 µM | CC(C)N(C(=O)c1cnc(N2CCCCC2)nc1-c1ccccc1F)c1cccc(N(C)C)c1 [compound 152]

Source: patent US8546414B2, “Ion channel modulators and methods of use” (Vertex Pharmaceuticals Incorporated, priority 2004, dated 2013)
